Reference: patent US7674807B2, “Heterocycle-substituted n-phenyl-phthalamide derivatives, related compounds and their use as insecticides” (Bayer CropScience AG, priority 2004, dated 2010)

Columns and labels:
[1] = test system: larva of Cnaphalocrocis medinalis Guenee; experiment: Test against larva of Cnaphalocrocis medinalis Guenee (sprayed paddy rice foliage); type: in vivo; details: 20 ppm concentration of the active component; second instar larvae; counted after 7 days; 25° C.
Description: Paddy rice (variety: Tamanishiki) planted in a pot was treated by spraying 50 ml per pot of the diluted aqueous solution of the prescribed concentration of the active compound prepared in the same manner as in the above-mentioned Biological Test Example 1. After the treated rice plant was dried in the air, their foliage part was cut in 4-5 cm length, which were put in a dish with 9 cm diameter with a sheet of filter paper and 2 ml of water. Five larvae of Cnaphalocrocis medinalis Guenee at the second instar were put in the dish that was placed in a room at the constant temperature of 25° C. After 2 and 4 days, each rest (each ⅓ amount) of foliage parts of rice plant were cut in the same manner and added to the dish. After 7 days the number of dead larvae was counted and the rate of death was calculated. In this test the results of 2 dishes at 1 section were averaged.

[2] = test system: larva of Spodoptera litura; experiment: Test against larva of Spodoptera litura (leaf dip, sweet potato leaves); type: in vivo; details: 20 ppm concentration of the active component; third instar larvae; counted after 7 days; 25° C.
Description: Preparation of Test Solution:
In order to make an appropriate formulation of an active compound, 1 part by weight of the active compound was mixed with the above-mentioned amount of solvent containing the above-mentioned amount of emulsifier and the mixture was diluted with water to a prescribed concentration.
Leaves of sweet potato were soaked in the test solution diluted to a prescribed concentration with water, dried in the air and put in a dish of 9 cm diameter.
10 larvae of Spodoptera litura at the third instar were placed on the leaves and kept in a room at the constant temperature of 25° C. After 2 and 4 days further leaves of sweet potato were added and after 7 days the number of dead larvae was counted and the rate of death was calculated.
In this test the results of 2 dishes at 1 section were averaged.

SMILES	controlling effect, rate of death [1] [%]	controlling effect, rate of death [2] [%]
CSC[C@H](C)NC(=O)c1c(I)cccc1C(=O)Nc1ccc(Cn2cc(C(F)(F)C(F)(F)C(F)(F)F)c(C(F)(F)C(F)(F)F)n2)cc1C [compound 660]	100	100
CSC[C@H](C)NC(=O)c1c(I)cccc1C(=O)Nc1ccc(Cn2cc(C(F)(F)C(F)(F)C(F)(F)C(F)(F)F)c(C(F)(F)C(F)(F)F)n2)cc1C [compound 664]	100	100
Cc1cc(Cn2nc(C(F)(F)F)cc2C(F)(F)F)ccc1NC(=O)c1cccc(Br)c1C(=O)NC(C)C[S+](C)[O-] (mixture of isomers) [compound 51]	100	100
Cc1cc(Cn2nc(C(F)(F)F)nc2C(F)(F)F)ccc1NC(=O)c1cccc(I)c1C(=O)NC(C)C[S+](C)[O-] (stereo not drawn) [compound 217]	100	100
Cc1cc(Cn2nc(C(F)(F)F)nc2C(F)(F)F)ccc1NC(=O)c1cccc(Cl)c1C(=O)NC(C)C[S+](C)[O-] (stereo not drawn) [compound 143]	100	100
CSC[C@H](C)NC(=O)c1c(Cl)cccc1C(=O)Nc1ccc(C(C)n2nc(C(F)(F)F)nc2C(F)(F)F)cc1C (stereo partly drawn) [compound 568]	100	100
Cc1cc(Cn2nc(C(F)(F)F)cc2C(F)(F)F)ccc1NC(=O)c1cccc(I)c1C(=O)NC(C)CS(C)(=O)=O (stereo not drawn) [compound 90]	100	100
Cc1cc(Cn2cc(C(F)(F)C(F)(F)F)c(C(F)(F)C(F)(F)F)n2)ccc1NC(=O)c1cccc(I)c1C(=O)N[C@@H](C)CS(C)(=O)=O [compound 656]	100	100
CSCC(C)NC(=O)c1c(I)cccc1C(=O)Nc1ccc(-c2cc(C(F)(F)F)nn2CC(F)(F)F)cc1C (stereo not drawn) [compound 506]	100	100
Cc1cc(Cn2nc(C(F)(F)F)nc2C(F)(F)F)ccc1NC(=O)c1cccc(I)c1C(=O)NC(C)CS(C)(=O)=O (stereo not drawn) [compound 219]	100	100
CSCC(C)NC(=O)c1c(I)cccc1C(=O)Nc1ccc(Cn2nc(C(F)(F)C(F)(F)F)nc2C(F)(F)F)cc1C (stereo not drawn) [compound 227]	100	100
CSC[C@H](C)NC(=O)c1c(Cl)cccc1C(=O)Nc1ccc(Cn2cc(C(F)(F)C(F)(F)C(F)(F)F)c(C(F)(F)C(F)(F)C(F)(F)F)n2)cc1C [compound 667]	100	100
Cc1cc(Cn2cc(C(F)(F)C(F)(F)F)c(C(F)(F)F)n2)ccc1NC(=O)c1cccc(Cl)c1C(=O)N[C@@H](C)C[S+](C)[O-] (stereo partly drawn) [compound 638]	100	100
Cc1cc(Cn2cc(C(F)(F)C(F)(F)C(F)(F)C(F)(F)F)c(C(F)(F)F)n2)ccc1NC(=O)c1cccc(I)c1C(=O)N[C@@H](C)C[S+](C)[O-] (stereo partly drawn) [compound 649]	100	100
Cc1cc(Cn2nc(C(F)(F)F)cc2C(F)(F)F)ccc1NC(=O)c1cccc(OS(C)(=O)=O)c1C(=O)NC(C)CS(C)(=O)=O (stereo not drawn) [compound 132]	100	100
Cc1cc(Cn2nc(C(F)(F)F)cc2C(F)(F)F)ccc1NC(=O)c1cccc(Cl)c1C(=O)NC(C)CS(C)(=O)=O (racemic) [compound 15]	100	100
Cc1cc(Cc2c(OC(F)F)nn(C(F)F)c2C(F)(F)F)ccc1NC(=O)c1cccc(I)c1C(=O)NC(C)CS(C)(=O)=O (stereo not drawn) [compound 270]	100	100
Cc1cc(Cn2cc(C(F)(F)C(F)(F)F)c(C(F)(F)C(F)(F)F)n2)ccc1NC(=O)c1cccc(I)c1C(=O)N[C@@H](C)C[S+](C)[O-] (stereo partly drawn) [compound 655]	100	100
CSCC(C)(C)NC(=O)c1c(Br)cccc1C(=O)Nc1ccc(Cn2nc(C(F)(F)F)cc2C(F)(F)F)cc1C [compound 45]	100	100
CSCC(C)NC(=O)c1c(Br)cccc1C(=O)Nc1ccc(Cn2nc(C(F)(F)F)nc2C(F)(F)F)cc1C (stereo not drawn) [compound 177]	100	100

SMILES	controlling effect, rate of death [1] [%]	controlling effect, rate of death [2] [%]
Cc1cc(Cn2nc(C(F)(F)F)cc2C(F)(F)F)ccc1NC(=O)c1cccc(I)c1C(=O)NC(C)C[S+](C)[O-] (mixture of isomers) [compound 87]	100	100
Cc1cc(Cn2nc(C(F)(F)F)cc2C(F)(F)F)ccc1NC(=O)c1cccc(I)c1C(=O)N[C@@H](C)CSC(C)C [compound 539]	100	100
CSC[C@H](C)NC(=O)c1c(C(=O)Nc2ccc(Cn3nc(C(F)(F)F)nc3C(F)(F)F)cc2C)cccc1[N+](=O)[O-] [compound 546]	100	100
CSC[C@H](C)NC(=O)c1c(Cl)cccc1C(=O)Nc1ccc(Cn2nc(C(F)(F)C(F)(F)F)cc2C(F)(F)C(F)(F)F)cc1C [compound 626]	100	100
CSCC(C)(C)NC(=O)c1c(Cl)cccc1C(=O)Nc1ccc(Cn2nc(C(F)(F)C(F)(F)F)nc2C(F)(F)F)cc1C [compound 149]	100	100
CSC[C@H](C)NC(=O)c1c(Cl)cccc1C(=O)Nc1ccc(Cn2cc(C(F)(F)C(F)(F)C(F)(F)C(F)(F)F)c(C(F)(F)F)n2)cc1C [compound 645]	100	100
Cc1cc(C(C)n2nc(C(F)(F)F)cc2C(F)(F)F)ccc1NC(=O)c1cccc(I)c1C(=O)N[C@@H](C)CS(C)(=O)=O (stereo partly drawn) [compound 564]	100	100
Cc1cc(Cn2cc(C(F)(F)C(F)(F)C(F)(F)F)c(C(F)(F)C(F)(F)F)n2)ccc1NC(=O)c1cccc(Cl)c1C(=O)N[C@@H](C)CS(C)(=O)=O [compound 659]	100	100
CSC[C@H](C)NC(=O)c1c(Cl)cccc1C(=O)Nc1ccc(Cn2cc(C(F)(F)C(F)(F)C(F)(F)F)c(C(F)(F)F)n2)cc1C [compound 643]	100	100
CSCC(C)(C)NC(=O)c1c(I)cccc1C(=O)Nc1ccc(Cn2nc(C(F)(F)F)cc2C(F)(F)F)cc1C [compound 82, N^1-[4-(3,5-bistrifluoromethylpyrazol-1-ylmethyl)-2-methylphenyl]-N^2-(1,1-dimethyl-2-methylsulfanylethyl)-3-iodophthalamide]	100	100
CSCC(C)NC(=O)c1c(Cl)cccc1C(=O)Nc1ccc(Cn2nc(C(F)(F)C(F)(F)F)nc2C(F)(F)F)cc1C (stereo not drawn) [compound 153]	100	100
CSCC(C)NC(=O)c1c(I)cccc1C(=O)Nc1ccc(-n2nc(C(F)(F)C(F)(F)F)cc2C(F)(F)F)cc1C (stereo not drawn) [compound 473]	100	100
Cc1cc(Cn2nc(C(F)(F)F)cc2C(F)(F)F)ccc1NC(=O)c1cccc(Cl)c1C(=O)NC(C)C[S+](C)[O-] (mixture of isomers) [compound 13]	100	100
CSC[C@H](C)NC(=O)c1c(I)cccc1C(=O)Nc1ccc(C(C)n2nc(C(F)(F)F)cc2C(F)(F)F)cc1C (stereo partly drawn) [compound 562]	100	100
CSCC(C)NC(=O)c1c(Cl)cccc1C(=O)Nc1ccc(Cn2nc(C(F)(F)F)cc2C(F)(F)F)cc1C (stereo not drawn) [compound 12]	100	100
CSC[C@H](C)NC(=O)c1c(I)cccc1C(=O)Nc1ccc(Cn2cc(C(F)(F)C(F)(F)C(F)(F)F)c(C(F)(F)C(F)(F)C(F)(F)F)n2)cc1C [compound 670]	100	100
CSCC(C)(C)NC(=O)c1c(I)cccc1C(=O)Nc1ccc(C(C)n2nc(C(F)(F)F)cc2C(F)(F)F)cc1C (stereo not drawn) [compound 565]	100	100
Cc1cc(Cn2nc(C(F)(F)F)nc2C(F)(F)F)ccc1NC(=O)c1cccc([N+](=O)[O-])c1C(=O)N[C@@H](C)CS(C)(=O)=O [compound 548]	100	100
Cc1cc(Cn2cc(C(F)(F)C(F)(F)C(F)(F)C(F)(F)F)c(C(F)(F)F)n2)ccc1NC(=O)c1cccc(Cl)c1C(=O)N[C@@H](C)CS(C)(=O)=O [compound 647]	100	100
